# From patent US20140205631A1, “Stimulation of vaccination by angiotensin peptides” (University of Southern California, priority 2013, published 2014)
# Tests used:
# [1] = tested on: FIV-p24 antigen; experiment: Serum IgG antibody titers (ELISA) after vaccination of cats; type: in vivo, feline immunodeficiency virus (FIV); settings: for Serum IgG anti-FIVp24 antigen Titers: lowest dilution 1:20
# Experimental: (§1) Animals: Eleven (11) female outbred cats>24 weeks old that were free of FIV, feline leukemia virus (FeLV) and feline infectious peritonitis virus were employed. The animals were restrained for the application of test articles to mucous membranes and collection of blood and mucosal secretions. Sedation, if necessary, was induced by subcutaneous administration of ketamine hydrochloride (22 mg/kg) and acepromazine maleate (0.1 mg/kg). Euthanasia was accomplished with a lethal overdose of barbiturates. All activities were approved by the Institutional Animal Care and Use Committee and supervised by veterinary staff.
# (§2) Vaccine Preparation: Fel-O-Vax FIV (Fort Dodge Animal Health, Fort Dodge, Iowa) and A(1-7) was combined in a constant volume of 2% hydroxyethyl cellulose (2% HEC). The range of concentrations of A(1-7) ranged from 0 to 10 mg/mL with a constant 0.33 mL of Fel-O-Vax FIV suspended in each mL of the gel applied for vaccination purposes. Two control animals received intramuscular Fel-O-Vax FIV at baseline, week 3 and week 5. One control animal had mucosal vaccination with Fel-O-Vax alone suspended in the 2% HEC without A(1-7) and one control animal received intramuscular Fel-O-Vax FIV with 0.3 mg/kg of A(1-7) at baseline, week 3 and week 5.
# (§3) Delivery of angiotensin(1-7) and FIV vaccine to mucosal surfaces: 2% HEC, a viscous gel, was used as the vehicle for the topical delivery of angiotensin(1-7) and FIV vaccine. The topical vaccine was applied to the mucosal surface weekly for 6 consecutive weeks. 1.0 mL was applied to the muzzle for oral mucosal vaccination and 1.0 mL and 0.2 mL was instilled in the rectal and vaginal vaults, respectively for mucosal vaccination at these sites.
# (§4) The local immune response in mucosal secretions was evaluated against the homologous FIV-p24 antigen (Cell Biolabs, Inc, San Diego, Calif.) or the heterologous HIV-gp120 antigen (ImmunoDiagnostics, Inc, Woburn, Mass.). Plates were prepared with 50 ng/mL FIV-p24 antigen or with 500 ng/mL HIV-gp120 antigen (Bachem Americans, Inc, Torrance, Calif.) incubated over night at 4° C., washed and the target sample added and incubated overnight again at 4° C. The plates were washed and the indicator goat anti-feline IgG (Accurate Chemical & Scientific Corp., Westbury, N.Y., working titer 1:10,000) or goat anti-feline IgA (Accurate Chemical & Scientific Corp., Westbury, N.Y., working titer 1:1,000) added and incubated for 24 hours at 4° C. Following a final wash, substrate solution was added. The stop solution was added after 15 minutes for the IgG reaction and after 30 minutes for the IgA reaction. Plates were read at 450 nm.
# [2] = tested on: FIV-p24 antigen; experiment: Vaginal secretion SIgA antibody titers (ELISA) after vaccination of cats; type: in vivo, feline immunodeficiency virus (FIV); settings: for SIgA Anti-FIV-p24: vaginal, lowest dilution Undilute
# Experimental: as §1, §2, §3
# (§5) Measurement of Local Immune Response: The Weck-Cel Surgical Spear (Windsor Biomedical, Newton, N.H.) was used to obtain secretions. Once inserted, the sponge is allowed to remain in place for 5 minutes. The secretions were extracted by centrifugation with 300 μL of a buffer solution. The buffer solution is prepared by mixing 50 μL of 100× protease inhibitor cocktail and 250 μL of 10% Igepal (Sigma, St Louis, Mo., U.S.A.) with 4.7 ml of phosphate-buffered saline (PBS) containing 0.25% bovine serum albumin (BSA, Fraction V; Sigma). The 100× protease inhibitor cocktail contains 100 μg/mL aprotinin, 500 μg/mL leupeptin, 100 μg/mL bestatin (all Sigma), and 50 μg/mL 4-(2-Aminoethyl)-benzenesulfonyl fluoride hydrochloride (Roche Applied Sciences, U.S.A.) in phosphate buffered saline.
# as §4
# [3] = tested on: HIV-gp120 antigen; experiment: as above; type: in vivo, human immunodeficiency virus (HIV); settings: for SIgA Anti-HIV gp120: vaginal, Week 8, lowest dilution 1:4, elution factor 300-fold
# Experimental: as §1, §2, §3
# Measurement of Local Immune Response: The Weck-Cel Surgical Spear (Windsor Biomedical, Newton, N.H.) was used to obtain secretions. […]
# The local immune response in mucosal secretions was evaluated against the homologous FIV-p24 antigen (Cell Biolabs, Inc, San Diego, Calif.) or the heterologous HIV-gp120 antigen (ImmunoDiagnostics, Inc, Woburn, Mass.). […] Plates were read at 450 nm.
# [4] = tested on: HIV-gp120 antigen; experiment: Vaginal secretion IgG antibody titers (ELISA) after vaccination of cats; type: in vivo, human immunodeficiency virus (HIV); settings: for IgG Anti-HIV gp120: vaginal, Week 8, lowest dilution 1:4, elution factor 300-fold
# Experimental: as §1, §2, §3, §5, §4
# [5] = tested on: FIV-p24 antigen; experiment: Rectal secretion SIgA antibody titers (ELISA) after vaccination of cats; type: in vivo, feline immunodeficiency virus (FIV); settings: for SIgA Anti-FIV-p24: rectal, lowest dilution Undilute
# Experimental: as §1, §2, §3, §5, §4
# [6] = topical Fel-O-Vax FIV + 0.1 A(1-7) in 2% HEC, Week 4
# [7] = topical Fel-O-Vax FIV + 0.1 A(1-7) in 2% HEC, Week 8
# [8] = topical Fel-O-Vax FIV + 0.4 A(1-7) in 2% HEC, Week 4
# [9] = topical Fel-O-Vax FIV + 5.0 A(1-7) in 2% HEC, Week 2
# [10] = topical Fel-O-Vax FIV + 5.0 A(1-7) in 2% HEC, Week 4
# [11] = topical Fel-O-Vax FIV + 5.0 A(1-7) in 2% HEC, Week 6
# [12] = topical Fel-O-Vax FIV + 5.0 A(1-7) in 2% HEC, Week 8
# [13] = topical Fel-O-Vax FIV + 7.5 A(1-7) in 2% HEC, Week 2
# [14] = topical Fel-O-Vax FIV + 7.5 A(1-7) in 2% HEC, Week 4
# [15] = topical Fel-O-Vax FIV + 7.5 A(1-7) in 2% HEC, Week 6
# [16] = topical Fel-O-Vax FIV + 7.5 A(1-7) in 2% HEC, Week 8
# [17] = topical Fel-O-Vax FIV + 10.0 A(1-7) in 2% HEC, Week 2
# [18] = topical Fel-O-Vax FIV + 10.0 A(1-7) in 2% HEC, Week 4
# [19] = topical Fel-O-Vax FIV + 10.0 A(1-7) in 2% HEC, Week 6
# [20] = topical Fel-O-Vax FIV + 10.0 A(1-7) in 2% HEC, Week 8
# [21] = Topical application of FIV antigen with A(1-7)
# [22] = IM Fel-O-Vax FIV + 0.3 mg/kg A(1-7), Week 4
# [23] = IM Fel-O-Vax FIV + 0.3 mg/kg A(1-7), Week 6
# [24] = topical Fel-O-Vax FIV + 0.1 A(1-7) in 2% HEC, Week 2
# [25] = topical Fel-O-Vax FIV + 0.2 A(1-7) in 2% HEC, Week 2
# [26] = topical Fel-O-Vax FIV + 0.2 A(1-7) in 2% HEC, Week 8
# [27] = topical Fel-O-Vax FIV + 0.3 A(1-7) in 2% HEC, Week 6
# [28] = topical Fel-O-Vax FIV + 0.3 A(1-7) in 2% HEC, Week 8
# [29] = topical Fel-O-Vax FIV + 0.1 A(1-7) in 2% HEC
# [30] = topical Fel-O-Vax FIV + 5.0 A(1-7) in 2% HEC
substance,measurement,setting,value
Asp-Arg-Val-Tyr-Ile-His-Pro (DRVYIHP) [A(1-7)],Serum IgG anti-FIVp24 antigen Titers,[1]; [6],Negative
same,Serum IgG anti-FIVp24 antigen Titers,[1]; [7],Negative
same,Serum IgG anti-FIVp24 antigen Titers,"[1]; topical Fel-O-Vax FIV + 0.2 A(1-7) in 2% HEC, Week 4",Negative
same,Serum IgG anti-FIVp24 antigen Titers,[1]; [8],Negative
same,Serum IgG anti-FIVp24 antigen Titers,"[1]; topical Fel-O-Vax FIV + 0.4 A(1-7) in 2% HEC, Week 8",Negative
same,Serum IgG anti-FIVp24 antigen Titers,[1]; [9],Negative
same,Serum IgG anti-FIVp24 antigen Titers,[1]; [10],Negative
same,Serum IgG anti-FIVp24 antigen Titers,[1]; [11],Negative
same,Serum IgG anti-FIVp24 antigen Titers,[1]; [12],Negative
same,Serum IgG anti-FIVp24 antigen Titers,[1]; [13],Negative
same,Serum IgG anti-FIVp24 antigen Titers,[1]; [14],Negative
same,Serum IgG anti-FIVp24 antigen Titers,[1]; [15],Negative
same,Serum IgG anti-FIVp24 antigen Titers,[1]; [16],Negative
same,Serum IgG anti-FIVp24 antigen Titers,[1]; [17],Negative
same,Serum IgG anti-FIVp24 antigen Titers,[1]; [18],Negative
same,Serum IgG anti-FIVp24 antigen Titers,[1]; [19],Negative
same,Serum IgG anti-FIVp24 antigen Titers,[1]; [20],Negative
same,dose response effect on serum IgG antibody titers to FIVp24 antigen,"[1]; topical vaccination, increasing dose levels of A(1-7)",no discernible dose response effect
same,SIgA against FIV-p24 in vaginal secretions,[2]; [21],only low levels
same,SIgA Anti-FIV-p24,"[2]; IM Fel-O-Vax FIV + 0.3 mg/kg A(1-7), Week 2",Negative
same,SIgA Anti-FIV-p24,[2]; [22],Undilute
same,SIgA Anti-FIV-p24,[2]; [23],Undilute
same,SIgA Anti-FIV-p24,[2]; [24],Undilute
same,SIgA Anti-FIV-p24,[2]; [6],Undilute
same,SIgA Anti-FIV-p24,[2]; [25],Undilute
same,SIgA Anti-FIV-p24,[2]; [26],Undilute
same,SIgA Anti-FIV-p24,[2]; [27],Undilute
same,SIgA Anti-FIV-p24,[2]; [28],Negative
same,SIgA Anti-FIV-p24,[2]; [9],Negative
same,SIgA Anti-FIV-p24,[2]; [10],Negative
same,SIgA Anti-FIV-p24,[2]; [11],Negative
same,SIgA Anti-FIV-p24,[2]; [12],Negative
same,SIgA Anti-FIV-p24,[2]; [13],Negative
same,SIgA Anti-FIV-p24,[2]; [14],Negative
same,SIgA Anti-FIV-p24,[2]; [15],Negative
same,SIgA Anti-FIV-p24,[2]; [16],Negative
same,SIgA Anti-FIV-p24,[2]; [17],Negative
same,SIgA Anti-FIV-p24,[2]; [19],Negative
same,SIgA Anti-FIV-p24,[2]; [20],Negative
same,SIgA-anti-HIV-gp120 antibodies in vaginal secretions,[3]; [21],substantial
same,SIgA Anti-HIV gp120,[3]; [29],Negative
same,SIgA Anti-HIV gp120,[3]; [30],Negative
same,IgG antibody induction in vaginal secretions,"[4]; topical, higher dose levels of A(1-7)",declined
same,IgG anti-HIV-gp120 antibodies in vaginal secretions,"[4]; topical, lower dose levels of A(1-7)",also elicited
same,IgG Anti-HIV gp120,[4]; [29],Negative
same,IgG Anti-HIV gp120,[4]; [30],Negative
same,IgG Anti-HIV gp120,[4]; topical Fel-O-Vax FIV + 7.5 A(1-7) in 2% HEC,Negative
same,IgG Anti-HIV gp120,[4]; topical Fel-O-Vax FIV + 10.0 A(1-7) in 2% HEC,Negative
same,"SIgA-anti-FIV-p24 (rectal, Table 4)",[5]; both methods of vaccination (parenteral or topical Fel-O-Vax FIV with A(1-7)),Low levels
same,mucosal anti-FIV antibodies in the rectum,[5]; injection of A(1-7) with FIV antigens,increased
same,SIgA Anti-FIV-p24,[5]; [22],Undilute
same,SIgA Anti-FIV-p24,[5]; [23],Negative
same,SIgA Anti-FIV-p24,"[5]; IM Fel-O-Vax FIV + 0.3 mg/kg A(1-7), Week 8",Undilute
same,SIgA Anti-FIV-p24,[5]; [24],Undilute
same,SIgA Anti-FIV-p24,"[5]; topical Fel-O-Vax FIV + 0.1 A(1-7) in 2% HEC, Week 6",Undilute
same,SIgA Anti-FIV-p24,[5]; [7],Undilute
same,SIgA Anti-FIV-p24,[5]; [25],Undilute
same,SIgA Anti-FIV-p24,"[5]; topical Fel-O-Vax FIV + 0.2 A(1-7) in 2% HEC, Week 6",Negative
same,SIgA Anti-FIV-p24,[5]; [26],Negative
same,SIgA Anti-FIV-p24,"[5]; topical Fel-O-Vax FIV + 0.3 A(1-7) in 2% HEC, Week 2",Undilute
same,SIgA Anti-FIV-p24,"[5]; topical Fel-O-Vax FIV + 0.3 A(1-7) in 2% HEC, Week 4",Undilute
same,SIgA Anti-FIV-p24,[5]; [27],Negative
same,SIgA Anti-FIV-p24,[5]; [28],Negative
same,SIgA Anti-FIV-p24,[5]; [8],Undilute
same,SIgA Anti-FIV-p24,"[5]; topical Fel-O-Vax FIV + 0.4 A(1-7) in 2% HEC, Week 6",Undilute
same,SIgA Anti-FIV-p24,[5]; [10],Negative
same,SIgA Anti-FIV-p24,[5]; [11],Negative
same,SIgA Anti-FIV-p24,[5]; [12],Negative
same,SIgA Anti-FIV-p24,[5]; [13],Negative
same,SIgA Anti-FIV-p24,[5]; [14],Negative
same,SIgA Anti-FIV-p24,[5]; [16],Negative
same,SIgA Anti-FIV-p24,[5]; [17],Negative
same,SIgA Anti-FIV-p24,[5]; [18],Negative
same,SIgA Anti-FIV-p24,[5]; [19],Negative
same,SIgA Anti-FIV-p24,[5]; [20],Negative
